Data published in patent US20160158377A1, “BCL-XL Inhibitory Compounds and Antibody Drug Conjugates Including the Same” (AbbVie Inc., priority 2014, published 2016).
Like-named read-outs stand apart in the source and are kept apart here.

What was measured:
circulating platelets = experiment: Number of circulating platelets in mice after single intraperitoneal injection
Bcl-xL = Bcl-xL (Homo sapiens, UniProt Q07817); experiment: TR-FRET Bcl-xL binding assay (competition with probe F-Bak)
Procedure: For the assay, test compounds were serially diluted in DMSO starting at 50 μM (2× starting concentration; 10% DMSO) and 10 μL transferred into a 384-well plate. 10 μL of a protein/probe/antibody mix was then added to each well at final concentrations listed below:
The samples were then mixed on a shaker for 1 minute and incubated for an additional 2 hours at room temperature. For each assay plate, a probe/antibody and protein/antibody/probe mixture were included as a negative and a positive control, respectively. Fluorescence was measured on the Envision (Perkin Elmer) using a 340/35 nm excitation filter and 520/525 (F-Bak) and 495/510 nm (Tb-labeled anti-his antibody) emission filters. Dissociation constants (Ki) were determined using Wang's equation (Wang, 1995, FEBS Lett. 360:111-114). The TR-FRET assay can be performed in the presence of varying concentrations of human serum (HS) or fetal bovine serum (FBS). Compounds were tested both without HS and in the presence of 1% HS.

[1] = system: Molt-4 human acute lymphoblastic leukemia cells; experiment: Molt-4 cell viability assay; format: cell-based; conditions: 10% human serum, 48 hours, CellTiter-Glo, read-out: Molt-4 Viability EC50 (nM, 10% HS)
Procedure: In one exemplary set of conditions, Molt-4 (ATCC, Manassas, Va.) human acute lymphoblastic leukemia cells were plated 12,500 cells per well in 384-well tissue culture plates (Corning, Corning, N.Y.) in a total volume of 25 μL tissue culture medium supplemented with 10% human serum (Sigma-Aldrich, St. Louis, Mo.) and treated with a 3-fold serial dilution of the compounds of interest from 10 μM to 0.0005 μM. Each concentration was tested in duplicate at least 3 separate times. The number of viable cells following 48 hours of compound treatment was determined using the CellTiter-Glo® Luminescent Cell Viability Assay according to the manufacturer's recommendations (Promega Corp., Madison, Wis.). Compounds were tested in the presence of 10% HS.

[2] = in the presence of 1% human serum (HS), read-out: Bcl-xL Binding Ki (nM, 1% HS)
[3] = without human serum, read-out: Bcl-xL Binding Ki

Bcl-xL, sequence (Q07817 whole entry): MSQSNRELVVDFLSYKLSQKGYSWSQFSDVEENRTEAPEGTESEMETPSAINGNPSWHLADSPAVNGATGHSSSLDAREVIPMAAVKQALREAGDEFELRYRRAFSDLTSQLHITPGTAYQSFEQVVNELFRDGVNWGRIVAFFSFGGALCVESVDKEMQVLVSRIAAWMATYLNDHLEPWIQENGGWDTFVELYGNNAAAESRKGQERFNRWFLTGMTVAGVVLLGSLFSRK

Row | Structure (SMILES) | Time to lowest count (circulating platelets; dose 25 mg/kg) [h] | Time after injection at which thrombocytopenia was maximal (circulating platelets; following injection of the compounds) [h] | Ki (Bcl-xL; [2]) [nM] | Ki (Bcl-xL; [3]) [nM] | EC50 [1] [nM]
1 | Cc1c(-c2ccc(N3CCc4cccc(C(=O)Nc5nc6ccccc6s5)c4C3)nc2C(=O)O)cnn1CC12CC3CC(CC(C3)C1)C2 [Compound A-1331852] | 6 | 6 |  |  | 
2 | Cc1c(-c2ccc(N3CCn4c(C(F)(F)F)nc(C(=O)Nc5nc6ccccc6s5)c4C3)nc2C(=O)O)cnn1CC12CC3(C)CC(C)(C1)CC(OCCN)(C3)C2 [Compound W3.20, 3-(1-{[3-(2-aminoethoxy)-5,7-dimethyltricyclo[3.3.1.1^3,7]dec-1-yl]methyl}-5-methyl-1H-pyrazol-4-yl)-6-[1-(1,3-benzothiazol-2-ylcarbamoyl)-3-(trifluoromethyl)-5,6-dihydroimidazo[1,5-a]pyrazin-7(8H)-yl]pyridine-2-carboxylic acid] |  |  | 0.014 | < 0.01 | 18.2
3 | CNCCOC12CC3(C)CC(C)(CC(Cn4ncc(-c5ccc(N6CCc7c(N)ccc(C(=O)Nc8nc9ccccc9s8)c7C6)nc5C(=O)O)c4C)(C3)C1)C2 [Compound W3.24, 6-[5-amino-8-(1,3-benzothiazol-2-ylcarbamoyl)-3,4-dihydroisoquinolin-2(1H)-yl]-3-[1-({3,5-dimethyl-7-[2-(methylamino)ethoxy]tricyclo[3.3.1.1^3,7]dec-1-yl}methyl)-5-methyl-1H-pyrazol-4-yl]pyridine-2-carboxylic acid] |  |  | 8.14 | 0.794 | 2210
4 | CNCC#Cc1cc2c(c(C(=O)Nc3nc4ccccc4s3)c1)CN(c1ccc(-c3cnn(CC45CC6(C)CC(C)(C4)CC(OCCOC)(C6)C5)c3C)c(C(=O)O)n1)CC2 [Compound W3.25, 6-[8-(1,3-benzothiazol-2-ylcarbamoyl)-6-[3-(methylamino)prop-1-yn-1-yl]-3,4-dihydroisoquinolin-2(1H)-yl]-3-(1-{[3-(2-methoxyethoxy)-5,7-dimethyltricyclo[3.3.1.1^3,7]dec-1-yl]methyl}-5-methyl-1H-pyrazol-4-yl)pyridine-2-carboxylic acid] |  |  | 0.9 | 0.138 | 424
5 | CNCCOC12CC3(C)CC(C)(CC(Cn4ncc(-c5ccc(-c6ccc7cncc(C(=O)Nc8nc9ccccc9s8)c7c6)nc5C(=O)O)c4C)(C3)C1)C2 [Compound W3.26, 6-[4-(1,3-benzothiazol-2-ylcarbamoyl)isoquinolin-6-yl]-3-[1-({3,5-dimethyl-7-[2-(methylamino)ethoxy]tricyclo[3.3.1.1^3,7]dec-1-yl}methyl)-5-methyl-1H-pyrazol-4-yl]pyridine-2-carboxylic acid] |  |  | 0.083 | < 0.02 | 4.3
6 | CNCCOC12CC3(C)CC(C)(CC(Cn4ncc(-c5ccc(-c6cc7cccc(C(=O)Nc8nc9ccccc9s8)c7[nH]6)nc5C(=O)O)c4C)(C3)C1)C2 [Compound W3.27, 6-[7-(1,3-benzothiazol-2-ylcarbamoyl)-1H-indol-2-yl]-3-[1-({3,5-dimethyl-7-[2-(methylamino)ethoxy]tricyclo[3.3.1.1^3,7]dec-1-yl}methyl)-5-methyl-1H-pyrazol-4-yl]pyridine-2-carboxylic acid] |  |  | 0.12 |  | 3.95
7 | Cc1c(-c2ccc(-c3cc4cccc(C(=O)Nc5nc6ccccc6s5)c4[nH]3)nc2C(=O)O)cnn1CC12CC3(C)CC(C)(C1)CC(OCCN)(C3)C2 [Compound W3.28, 3-(1-{[3-(2-aminoethoxy)-5,7-dimethyltricyclo[3.3.1.1^3,7]dec-1-yl]methyl}-5-methyl-1H-pyrazol-4-yl)-6-[7-(1,3-benzothiazol-2-ylcarbamoyl)-1H-indol-2-yl]pyridine-2-carboxylic acid] |  |  | 0.17 | < 0.01 | 8.38
8 | CNCCOC12CC3(C)CC(C)(CC(Cn4ncc(-c5ccc(-c6[nH]c7c(C(=O)Nc8nc9ccccc9s8)cccc7c6C)nc5C(=O)O)c4C)(C3)C1)C2 [Compound W3.29, 6-[7-(1,3-benzothiazol-2-ylcarbamoyl)-3-methyl-1H-indol-2-yl]-3-[1-({3,5-dimethyl-7-[2-(methylamino)ethoxy]tricyclo[3.3.1.1^3,7]dec-1-yl}methyl)-5-methyl-1H-pyrazol-4-yl]pyridine-2-carboxylic acid] |  |  | 0.09 | < 0.01 | 185
9 | Cc1c(-c2ccc(N3CCc4cccc(C(=O)Nc5nc6ccccc6s5)c4C3)nc2C(=O)O)cnn1CC12CC3(C)CC(C)(C1)CC(OCCNC1CCN(S(C)(=O)=O)CC1)(C3)C2 [Compound W3.30, 6-[8-(1,3-benzothiazol-2-ylcarbamoyl)-3,4-dihydroisoquinolin-2(1H)-yl]-3-(1-{[3,5-dimethyl-7-(2-{[1-(methylsulfonyl)piperidin-4-yl]amino}ethoxy)tricyclo[3.3.1.1^3,7]dec-1-yl]methyl}-5-methyl-1H-pyrazol-4-yl)pyridine-2-carboxylic acid] |  |  | 0.891 | 0.011 | 16.3
10 | Cc1c(-c2ccc(N3CCc4cccc(C(=O)Nc5nc6ccccc6s5)c4C3)nc2C(=O)O)cnn1CC12CC3(C)CC(C)(C1)CC(OCCNC1CN(S(C)(=O)=O)C1)(C3)C2 [Compound W3.31, 6-[8-(1,3-benzothiazol-2-ylcarbamoyl)-3,4-dihydroisoquinolin-2(1H)-yl]-3-(1-{[3,5-dimethyl-7-(2-{[1-(methylsulfonyl)azetidin-3-yl]amino}ethoxy)tricyclo[3.3.1.1^3,7]dec-1-yl]methyl}-5-methyl-1H-pyrazol-4-yl)pyridine-2-carboxylic acid] |  |  | 0.684 | 0.012 | 14.4
11 | Cc1c(-c2ccc(N3CCc4cccc(C(=O)Nc5nc6ccccc6s5)c4C3)nc2C(=O)O)cnn1CC12CC3(C)CC(C)(C1)CC(OCCNCCC(N)=O)(C3)C2 [Compound W3.32, 3-{1-[(3-{2-[(3-amino-3-oxopropyl)amino]ethoxy}-5,7-dimethyltricyclo[3.3.1.1^3,7]dec-1-yl)methyl]-5-methyl-1H-pyrazol-4-yl}-6-[8-(1,3-benzothiazol-2-ylcarbamoyl)-3,4-dihydroisoquinolin-2(1H)-yl]pyridine-2-carboxylic acid] |  |  | 0.365 | < 0.01 | 108
12 | CNCCOC12CC3(C)CC(C)(CC(Cn4ncc(-c5ccc(-c6ccc7[nH]nc(C(=O)Nc8nc9ccccc9s8)c7c6)nc5C(=O)O)c4C)(C3)C1)C2 [Compound W3.33, 6-[3-(1,3-benzothiazol-2-ylcarbamoyl)-1H-indazol-5-yl]-3-[1-({3,5-dimethyl-7-[2-(methylamino)ethoxy]tricyclo[3.3.1.1^3,7]dec-1-yl}methyl)-5-methyl-1H-pyrazol-4-yl]pyridine-2-carboxylic acid] |  |  | 0.319 | 0.044 | 422
13 | CNCCOC12CC3(C)CC(C)(CC(Cn4ncc(-c5ccc(-c6ccc7[nH]cc(C(=O)Nc8nc9ccccc9s8)c7c6)nc5C(=O)O)c4C)(C3)C1)C2 [Compound W3.34, 6-[3-(1,3-benzothiazol-2-ylcarbamoyl)-1H-indol-5-yl]-3-[1-({3,5-dimethyl-7-[2-(methylamino)ethoxy]tricyclo[3.3.1.1^3,7]dec-1-yl}methyl)-5-methyl-1H-pyrazol-4-yl]pyridine-2-carboxylic acid] |  |  | 0.27 | 0.041 | 187
14 | CNCCOC12CC3(C)CC(C)(CC(Cn4ncc(-c5ccc(-c6cnc7[nH]cc(C(=O)Nc8nc9ccccc9s8)c7c6)nc5C(=O)O)c4C)(C3)C1)C2 [Compound W3.35, 6-[3-(1,3-benzothiazol-2-ylcarbamoyl)-1H-pyrrolo[2,3-b]pyridin-5-yl]-3-[1-({3,5-dimethyl-7-[2-(methylamino)ethoxy]tricyclo[3.3.1.1^3,7]dec-1-yl}methyl)-5-methyl-1H-pyrazol-4-yl]pyridine-2-carboxylic acid] |  |  | 0.16 | 0.022 | 658
15 | Cc1c(-c2ccc(-c3ccc4cccc(C(=O)Nc5nc6ccccc6s5)c4c3)nc2C(=O)O)cnn1CC12CC3(C)CC(C)(C1)CC(OCCNCCCO)(C3)C2 [Compound W3.37, 6-[8-(1,3-benzothiazol-2-ylcarbamoyl)naphthalen-2-yl]-3-{1-[(3-{2-[(3-hydroxypropyl)amino]ethoxy}-5,7-dimethyltricyclo[3.3.1.1^3,7]dec-1-yl)methyl]-5-methyl-1H-pyrazol-4-yl}pyridine-2-carboxylic acid] |  |  | 0.58 | 0.03 | 10.8
16 | CNC(=O)CCNCCOC12CC3(C)CC(C)(CC(Cn4ncc(-c5ccc(N6CCc7cccc(C(=O)Nc8nc9ccccc9s8)c7C6)nc5C(=O)O)c4C)(C3)C1)C2 [Compound W3.39, 6-[8-(1,3-benzothiazol-2-ylcarbamoyl)-3,4-dihydroisoquinolin-2(1H)-yl]-3-(1-{[3,5-dimethyl-7-(2-{[3-(methylamino)-3-oxopropyl]amino}ethoxy)tricyclo[3.3.1.1^3,7]dec-1-yl]methyl}-5-methyl-1H-pyrazol-4-yl)pyridine-2-carboxylic acid] |  |  | 0.44 | 0.015 | 37.7
